From patent US5212286A, “Atrial Natriuretic/vasodilator peptide compounds” (Scios Nova Inc., priority 1986, dated 1993)
pIC50, pKi: −log10 of the molar value. Positions of bridges follow the written chain, without caps; N, C: chain ends. Residues, ends and D or L forms follow the SMILES beside them.

Experiments:
intact rats = experiment: Natriuretic and diuretic effects in intact rats (bolus injection); type: in vivo, rat
Procedure: Synthetic ANVP compounds […] hANVP(127-151) were also found to be natriuretic in the intact rat. These compounds were administered as a bolus injection to Inactin anesthetized rats (100 mg/kg, average weight 399 g) which were maintained on a constant infusion of normal saline at 2.2 ml/hr. […] Data are expressed as mean±SE.

[1] = tested on: precontracted rabbit or rat aortic preparations; experiment: Vasorelaxant potency on precontracted aortic rings; conditions: for pIC50: thoracic aortic segments precontracted with histamine or norepinephrine, read-out: IC50 (concentration producing half-maximal relaxation of the precontracted tissue); for vasorelaxant potency in words: precontracted vascular preparations
Procedure: Synthetic ANVP compounds were compared to partially purified (gel filtration step) and purified (HPLC) native ANVP compounds (See FIGS. 3A-D) for their ability to relax histamine-contracted aortic rings. Rings were suspended in 10 ml aerated Kreb's buffer under 1.5 gm passive tension. Rings were precontracted with 5 X 10^-6 M histamine, washed and allowed to return to baseline tension, as described ([…]., supra). Increasing amounts of purified or synthetic ANVP compounds were then added in cumulative fashion. […] The relaxation effects of various ANVP compounds on precontracted rabbit or rat aortic preparations are shown in Table III. | Thoracic aortic segments were precontracted with histamine or | norepinephrine as previously described. Various doses of ANVP compounds | were then added and relaxation of the precontracted state was monitored. | Data are expressed as the concentration of each peptide required to | produce a halfmaximal relaxation of the precontracted tissue (IC50).

[2] = tested on: ANVP receptor sites on cultured bovine vascular smooth muscle cells; experiment: Displacement of specific [125I]rANVP(126-150) binding on cultured smooth muscle cells; conditions: for pKi: concentration of half-maximal displacement
Text: Specific and saturable binding is a necessary component of a hormone/receptor interaction.
Various concentrations of the peptides described were examined for […]

isolated rat kidney = experiment: Renal function in the isolated perfused rat kidney; conditions: dose 1 μg; experimental period E; mean of 3-8 experiments

| SMILES | pIC50 [1] | pKi ([2]; Series B smooth muscle cells) | vasorelaxant potency in words [1] | other results |
| --- | --- | --- | --- | --- |
| CC[C@H](C)[C@@H]1NC(=O)[C@H](CCCNC(=N)N)NC(=O)[C@H](CC(=O)O)NC(=O)[C@H]([C@@H](C)CC)NC(=O)[C@H](CCCNC(=N)N)NC(=O)[C@@H]2CCCN2C(=O)CNC(=O)[C@H](Cc2ccccc2)NC(=O)[C@@H](NC(=O)[C@H](CO)NC(=O)[C@H](CO)NC(=O)[C@@H](N)CCCNC(=N)N)CSSC[C@@H](C(=O)N[C@@H](CC(N)=O)C(=O)N[C@@H](CO)C(=O)N[C@@H](Cc2ccccc2)C(=O)N[C@@H](CCCNC(=N)N)C(=O)N[C@@H](Cc2ccc(O)cc2)C(=O)O)NC(=O)CNC(=O)[C@H](CC(C)C)NC(=O)CNC(=O)[C@H](CO)NC(=O)[C@H](CCC(N)=O)NC(=O)[C@H](C)NC(=O)CNC1=O [[Pro^132]rANVP(126-150), H-Arg-Ser-Ser-Cys-Phe-Gly-Pro-Arg-Ile-Asp-Arg-Ile-Gly-Ala-GLn-Ser-Gly-Leu-Gly-Cys-Asn-Ser-Phe-Arg-Tyr-OH] | 8.49 |  |  | Peak Na+ Excr. (intact rats; dose 3670 pmol/kg): 56 ± 20 µmol/min; Peak Urine Vol. (intact rats; dose 3670 pmol/kg): 10.5 ± 2 µL/min |
| CC[C@H](C)[C@@H]1NC(=O)[C@H](CCCNC(=N)N)NC(=O)CNC(=O)CNC(=O)[C@H](Cc2ccccc2)NC(=O)[C@@H](NC(=O)[C@H](CO)NC(=O)[C@H](CO)NC(=O)[C@@H](N)CCCNC(=N)N)CSSC[C@@H](C(=O)N[C@@H](CC(N)=O)C(=O)N[C@@H](CO)C(=O)N[C@@H](Cc2ccccc2)C(=O)N[C@@H](CCCNC(=N)N)C(=O)N[C@@H](Cc2ccc(O)cc2)C(=O)O)NC(=O)CNC(=O)[C@H](CC(C)C)NC(=O)CNC(=O)[C@H](CO)NC(=O)[C@H](CCC(N)=O)NC(=O)[C@H](C)NC(=O)[C@@H](C)NC(=O)[C@H]([C@@H](C)CC)NC(=O)[C@H](CCCNC(=N)N)NC(=O)[C@H](CC(=O)O)NC1=O [[D-Ala^138]rANVP(126-150), H-Arg-Ser-Ser-Cys-Phe-Gly-Gly-Arg-Ile-Asp-Arg-Ile-[D-Ala]-Ala-Gln-Ser-Gly-Leu-Gly-Cys-Asn-Ser-Phe-Arg-Tyr-OH] | 8.51 |  |  | pKi ([2]; Series A smooth muscle cells): 7.70; .V (urine flow rate) (isolated rat kidney): 57.5 µL/min; GFR (isolated rat kidney): 0.54 mL/min; UNa.V (urinary sodium excretion rate) (isolated rat kidney): 2.53 μEq/min |
| CC[C@H](C)[C@@H]1NC(=O)[C@H](CCCNC(=N)N)NC(=O)[C@H](CC(=O)O)NC(=O)[C@H]([C@@H](C)CC)NC(=O)[C@H](CCCNC(=N)N)NC(=O)CNC(=O)CNC(=O)[C@H](Cc2ccccc2)NC(=O)[C@@H](NC(=O)[C@H](CO)NC(=O)[C@H](CO)NC(=O)[C@@H](N)CCCNC(=N)N)CSSC[C@@H](C(=O)N[C@@H](CC(N)=O)C(=O)N[C@@H](CO)C(N)=O)NC(=O)CNC(=O)[C@H](CC(C)C)NC(=O)CNC(=O)[C@H](CO)NC(=O)[C@H](CCC(N)=O)NC(=O)[C@H](C)NC(=O)CNC1=O [rANVP(126-147)-NH2] (H-RSSCFGGRIDRIGAQSGLGCNS-NH2; disulfide 4-20) | 7.89 | 8.74 |  |  |
| CC[C@H](C)[C@@H]1NC(=O)[C@H](CCCNC(=N)N)NC(=O)[C@H](CC(=O)O)NC(=O)[C@H]([C@@H](C)CC)NC(=O)[C@H](CCCNC(=N)N)NC(=O)CNC(=O)CNC(=O)[C@H](Cc2ccccc2)NC(=O)[C@@H](NC(=O)[C@H](CO)NC(=O)[C@H](CO)NC(=O)[C@@H](N)CCCNC(=N)N)CSSC[C@@H](C(=O)N[C@@H](CC(N)=O)C(=O)N[C@@H](CO)C(=O)N[C@@H](Cc2ccccc2)C(=O)O)NC(=O)CNC(=O)[C@H](CC(C)C)NC(=O)CNC(=O)[C@H](CO)NC(=O)[C@H](CCC(N)=O)NC(=O)[C@H](C)NC(=O)CNC1=O [rANVP(126-148)] (H-RSSCFGGRIDRIGAQSGLGCNSF-OH; disulfide 4-20) | 8.12 | 8.88 | substantially less potent than rANVP(126-150) | binding activity in smooth muscle cells relative to rANVP(126-150), in words [2]: comparable binding activity to rANVP(126-150); Peak Na+ Excr. (intact rats; dose 455 pmol/kg): 56.3 ± 8 µmol/min; Peak Urine Vol. (intact rats; dose 455 pmol/kg): 6.8 ± 0.5 µL/min |
| CC[C@H](C)[C@@H]1NC(=O)[C@H](CCCNC(=N)N)NC(=O)[C@H](CC(N)=O)NC(=O)[C@H]([C@@H](C)CC)NC(=O)[C@H](CCCNC(=N)N)NC(=O)CNC(=O)CNC(=O)[C@H](Cc2ccccc2)NC(=O)[C@@H](NC(=O)[C@H](CO)NC(=O)[C@H](CO)NC(=O)[C@@H](N)CCCNC(=N)N)CSSC[C@@H](C(=O)N[C@@H](CC(N)=O)C(=O)N[C@@H](CO)C(=O)N[C@@H](Cc2ccccc2)C(=O)N[C@@H](CCCNC(=N)N)C(=O)N[C@@H](Cc2ccc(O)cc2)C(=O)O)NC(=O)CNC(=O)[C@H](CC(C)C)NC(=O)CNC(=O)[C@H](CO)NC(=O)[C@H](CCC(N)=O)NC(=O)[C@H](C)NC(=O)CNC1=O [[Asn^135]rANVP(126-150)] (H-RSSCFGGRINRIGAQSGLGCNSFRY-OH; disulfide 4-20) |  | 7.47 |  |  |
| CC[C@H](C)[C@@H]1NC(=O)[C@H](CCCNC(=N)N)NC(=O)CNC(=O)CNC(=O)[C@H](Cc2ccccc2)NC(=O)[C@@H](NC(=O)[C@H](CO)NC(=O)[C@H](CO)NC(=O)[C@@H](N)CCCNC(=N)N)CSSC[C@@H](C(=O)N[C@@H](CC(N)=O)C(=O)N[C@@H](CO)C(=O)N[C@@H](Cc2ccccc2)C(=O)N[C@@H](CCCNC(=N)N)C(=O)N[C@@H](Cc2ccc(O)cc2)C(=O)O)NC(=O)CNC(=O)[C@H](CC(C)C)NC(=O)CNC(=O)[C@H](CO)NC(=O)[C@H](CCC(N)=O)NC(=O)[C@H](C)NC(=O)CNC(=O)[C@@H](C(C)C)NC(=O)[C@H](CCCNC(=N)N)NC(=O)[C@H](CC(=O)O)NC1=O [[D-Val^137]rANVP(126-150), H-Arg-Ser-Ser-Cys-Phe-Gly-Gly-Arg-Ile-Asp-Arg-[D-Val]-Gly-Ala-Gln-Ser-Gly-Leu-Gly-Cys-Asn-Ser-Phe-Arg-Tyr-OH] | 7.40 |  |  | diuresis and natriuresis in intact rats, in words (intact rats; Table VII doses): exceptions; Peak Na+ Excr. (intact rats; dose 3670 pmol/kg): 0.54 ± 0.3 µmol/min; Peak Urine Vol. (intact rats; dose 3670 pmol/kg): 9.5 ± 5 µL/min |
| CC[C@H](C)[C@@H]1NC(=O)[C@H](CCCNC(=N)N)NC(=O)[C@H](CC(=O)O)NC(=O)[C@@H](CCSC)NC(=O)[C@H](CCCNC(=N)N)NC(=O)CNC(=O)CNC(=O)[C@H](Cc2ccccc2)NC(=O)[C@@H](NC(=O)[C@H](CO)NC(=O)[C@H](CO)NC(=O)[C@@H](N)CCCNC(=N)N)CSSC[C@@H](C(=O)N[C@@H](CC(N)=O)C(=O)N[C@@H](CO)C(=O)N[C@@H](Cc2ccccc2)C(=O)N[C@@H](CCCNC(=N)N)C(=O)N[C@@H](Cc2ccc(O)cc2)C(=O)O)NC(=O)CNC(=O)[C@H](CC(C)C)NC(=O)CNC(=O)[C@H](CO)NC(=O)[C@H](CCC(N)=O)NC(=O)[C@H](C)NC(=O)CNC1=O [[D-Met^135]hANVP(127-151), H-Arg-Ser-Ser-Cys-Phe-Gly-Arg-[D-Met]-Asp-Arg-Ile-Gly-Ala-Gln-Ser-Gly-Leu-Gly-Cys-Asn-Ser-Phe-Arg-Tyr-OH] | 8.12 | 8.37 |  |  |
| CC[C@H](C)[C@@H]1NC(=O)[C@H](CCCNC(=N)N)NC(=O)[C@H](CC(=O)O)NC(=O)[C@H]([C@@H](C)CC)NC(=O)[C@H](CCCNC(=N)N)NC(=O)CNC(=O)CNC(=O)[C@H](Cc2ccccc2)NC(=O)[C@@H](NC(=O)[C@H](CO)NC(=O)[C@H](CO)NC(=O)[C@@H](N)CCCNC(=N)N)CSSC[C@@H](C(=O)N[C@@H](CC(N)=O)C(=O)N[C@@H](CO)C(=O)N[C@@H](Cc2ccccc2)C(=O)N[C@@H](CCCNC(=N)N)C(=O)N[C@@H](Cc2ccc(O)cc2)C(N)=O)NC(=O)CNC(=O)[C@H](CC(C)C)NC(=O)CNC(=O)[C@H](CO)NC(=O)[C@H](CCC(N)=O)NC(=O)[C@H](C)NC(=O)CNC1=O [rANVP(126-150)-NH2, H-Arg-Ser-Ser-Cys-Phe-Gly-Gly-Arg-Ile-Asp-Arg-Ile-Gly-Ala-Gln-Ser-Glyn-Leu- Gly-Cys-Asn-Ser-Phe-Arg-Tyr-NH2] | 9.10 |  | most potent | Peak Na+ Excr. (intact rats; dose 367 pmol/kg): 57 µmol/min; Peak Urine Vol. (intact rats; dose 367 pmol/kg): 11.2 ± 1.6 µL/min |
| CC[C@H](C)[C@@H]1NC(=O)[C@H](CCCNC(=N)N)NC(=O)[C@H](CC(=O)O)NC(=O)[C@H](CCSC)NC(=O)[C@H](CCCNC(=N)N)NC(=O)CNC(=O)CNC(=O)[C@H](Cc2ccccc2)NC(=O)[C@@H](NC(=O)[C@H](CO)NC(=O)[C@H](CO)NC(=O)[C@@H](N)CCCNC(=N)N)CSSC[C@@H](C(=O)O)NC(=O)CNC(=O)[C@H](CC(C)C)NC(=O)CNC(=O)[C@H](CO)NC(=O)[C@H](CCC(N)=O)NC(=O)[C@H](C)NC(=O)CNC1=O [hANVP(127-146)] (H-RSSCFGGRMDRIGAQSGLGC-OH; disulfide 4-20) | 7.00 | 8.74 | substantially diminished potency |  |
| CC[C@H](C)[C@@H]1NC(=O)[C@H](CCCNC(=N)N)NC(=O)[C@H](CC(=O)O)NC(=O)[C@H](CCSC)NC(=O)[C@H](CCCNC(=N)N)NC(=O)CNC(=O)CNC(=O)[C@H](Cc2ccccc2)NC(=O)[C@@H](NC(=O)[C@H](CO)NC(=O)[C@H](CO)NC(=O)[C@@H](N)CCCNC(=N)N)CSSC[C@@H](C(=O)N[C@@H](CC(N)=O)C(=O)N[C@@H](CO)C(=O)N[C@@H](Cc2ccccc2)C(=O)O)NC(=O)CNC(=O)[C@H](CC(C)C)NC(=O)CNC(=O)[C@H](CO)NC(=O)[C@H](CCC(N)=O)NC(=O)[C@H](C)NC(=O)CNC1=O [hANVP(127-149)] (H-RSSCFGGRMDRIGAQSGLGCNSF-OH; disulfide 4-20) |  | 8.61 |  |  |
